Results: patent publication US20230018423A1, “BENZIMIDAZOLE DERIVATIVES FOR TREATMENT AND/OR PREVENTION OF DISEASES AND DISORDERS MEDIATED BY NLRP3” (YODA PHARMACEUTICALS INC., priority 2021, published 2023)

Key:
[1] = system: TgM83 mice; test: Open field task (locomotion activity) in TgM83 mouse model; assay type: in vivo
[2] = system: TgM83 mice; test: Rotarod task (motor coordination) in TgM83 mouse model; assay type: in vivo
[3] = system: IL-1β; test: Inflammation cytokine ELISA in the cerebellum of TgM83 mice: IL-1β; assay type: in vivo, mouse; details: 30 mg/kg oral gavage, sacrificed after 20 minutes, P<0.05, FIG. 5A
Description: (§1) To characterize the inflammatory response after RS-D7 treatment, the level of inflammation cytokines, including interleukin-1 beta (IL-1β), interleukin-6 (IL-6), and Tumor Necrosis Factor-α (TNF-α), were examined in the cerebellum of male TgM83 and WT littermate mice (n=5 each) using enzyme-linked immunosorbent assay (ELISA). All the animals were sacrificed after 20-minutes RS-D7 treatment and the tissue samples were taken from […] of the mouse brain from male WT littermates, TgM83 mice and TgM83 mice with RS-D7 treatment (30 mg/kg, P.O.). These samples were dissected on ice and then stored at −80° C. before use. The ELISA experiment was performed using commercial kits for IL-1β (88-7013, Invitrogen, USA), IL-6 (88-7064, Invitrogen, USA) and TNF-α (88-7324, Invitrogen, USA). Procedures were followed according to manufactures protocols. Standards and samples were run in triplicates. OD values were read at 450 nm using a microplate reader (ThermoFisher Scientific, USA). Calculation of concentrations were done according to manufactures protocol using standard curve methods.
(§2) All of the data are presented as the mean+SE of the mean (SEM). The data was analyzed with one-way ANOVA in behavioral results. A post-hoc analysis was performed with Fisher's LSD test when F values reaching significant difference. […]

[4] = system: IL-6; test: Inflammation cytokine ELISA in the cerebellum of TgM83 mice: IL-6; assay type: in vivo, mouse; details: 30 mg/kg oral gavage, sacrificed after 20 minutes, P<0.05, FIG. 5B
Description: as §1, §2

[5] = system: TNF-α; test: Inflammation cytokine ELISA in the cerebellum of TgM83 mice: TNF-α; assay type: in vivo, mouse; details: 30 mg/kg oral gavage, sacrificed after 20 minutes, P<0.05, FIG. 5C
Description: as §1, §2

[6] = target: T1, NLRP3 inflammasome (Homo sapiens, UniProt Q96P20); test: NLRP3 inflammasome assay, IL-1β ELISA in LPS- and ATP-treated THP-1 cells; details: 50 ng/mL LPS + 5 mM ATP, compared to the LPS+ATP group, MCC950 1 uM, RS-D7 0.1-5 uM, others 0.2-5 uM, FIG. 2A
Description: (§3) The assays were conducted using Human promonocytic leukemia THP-1 cells.
(§4) Human promonocytic leukemia THP-1 cells were cultured in RPMI and treated with Phorbol 12-myristate 13-acetate (PMA). […] The supernatant of PMA-differentiated THP-1 cells was collected at given time points after stimulation, and IL-1β level in cell culture supernatant was determined using IL-1 beta Human Uncoated ELISA Kit (Invitrogen). Supernatants and cell lysate were also evaluated by immunoblotting methods. The immunoreactive signals were developed using Immobilon Crescendo Western HRP substrate and the digitized image of the membrane was detected by ImageQuant LAS 4000mini (GE) according to the manufacturer's instructions.

[7] = target: T1, NLRP3 inflammasome; test: NLRP3 inflammasome assay, IL-1β ELISA in LPS- and MSU-treated THP-1 cells; details: 50 ng/mL LPS + 400 ug/ml MSU, compared to the LPS+MSU group, RS-D7 0.1-5 uM, others 0.2-5 uM, FIG. 2B
Description: as §3, §4

[8] = target: T1, NLRP3 inflammasome; test: NLRP3 inflammasome assay, western blot (immunoblotting) of LPS+MSU-treated PMA-primed THP-1 cells; details: MCC950 1 uM, RS-D7 0.1, 1 and 5 uM, FIG. 1
Description: as §3, §4

T1 sequence (Q96P20 whole entry): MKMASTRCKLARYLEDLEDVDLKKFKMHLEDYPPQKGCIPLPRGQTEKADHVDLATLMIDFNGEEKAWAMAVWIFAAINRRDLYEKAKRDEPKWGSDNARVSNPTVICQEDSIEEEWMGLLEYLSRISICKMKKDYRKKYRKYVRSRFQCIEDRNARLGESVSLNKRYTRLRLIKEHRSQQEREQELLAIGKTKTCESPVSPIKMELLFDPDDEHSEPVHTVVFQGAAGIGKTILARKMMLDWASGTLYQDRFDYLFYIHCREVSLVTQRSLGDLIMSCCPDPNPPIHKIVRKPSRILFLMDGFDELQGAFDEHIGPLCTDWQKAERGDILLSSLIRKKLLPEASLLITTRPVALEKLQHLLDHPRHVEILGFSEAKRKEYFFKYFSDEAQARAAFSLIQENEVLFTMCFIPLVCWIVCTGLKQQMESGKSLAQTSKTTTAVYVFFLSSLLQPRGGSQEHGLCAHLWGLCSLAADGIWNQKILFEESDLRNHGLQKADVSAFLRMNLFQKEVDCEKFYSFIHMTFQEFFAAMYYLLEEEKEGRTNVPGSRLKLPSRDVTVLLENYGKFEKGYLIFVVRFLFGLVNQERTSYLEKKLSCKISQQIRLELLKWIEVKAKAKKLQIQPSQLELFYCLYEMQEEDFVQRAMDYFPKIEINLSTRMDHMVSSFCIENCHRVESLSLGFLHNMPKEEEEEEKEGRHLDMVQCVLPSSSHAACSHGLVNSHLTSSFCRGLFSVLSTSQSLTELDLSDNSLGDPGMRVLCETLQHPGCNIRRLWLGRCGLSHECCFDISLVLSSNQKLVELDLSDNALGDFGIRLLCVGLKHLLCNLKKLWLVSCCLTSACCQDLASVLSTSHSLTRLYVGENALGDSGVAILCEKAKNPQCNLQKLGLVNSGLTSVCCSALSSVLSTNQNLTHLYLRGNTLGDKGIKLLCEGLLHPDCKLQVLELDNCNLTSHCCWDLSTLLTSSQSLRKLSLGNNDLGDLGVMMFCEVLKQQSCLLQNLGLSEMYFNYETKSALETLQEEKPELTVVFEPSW

SMILES | increase of distance moved versus TgM83 vehicle mice (rescue of hypolocomotion) ([1]; 30 mg/kg oral gavage, one hour, P<0.05) | total distance moved in the open field test ([1]; 12-month-old, single dose 30 mg/kg PO, 1-hour period, mean±sem, TgM83 vehicle 15,472±942, WT 21,552±1,269) | prolonging of the falling latency versus TgM83 vehicle mice ([2]; 30 mg/kg oral gavage, P<0.05) | falling latency on the rotarod ([2]; single dose 30 mg/kg PO, accelerating 4-40 rpm, mean±sem, TgM83 vehicle 55.3±10.4, WT 99.5±7.5) | IL-1β level in the cerebellum (ELISA) [3] | IL-6 level in the cerebellum (ELISA) [4] | TNF-α level in the cerebellum (ELISA) [5] | IL-1β level in cell culture supernatant (ELISA) [6] | IL-1β level in cell culture supernatant (ELISA) [7] | expression of IL-1β (western blot) [8] | expression of caspase-1 (western blot) [8]
COc1c(C)cnc(C[S+]([O-])c2nc3ccc(O)cc3[nH]2)c1C (stereo not drawn) [RS-D7, 5-O-Desmethyl-Omeprazole] | 5,007 cm | 20,479±730 cm | 76.8 s | 132.1 ± 16.1 s | significantly inhibit the overexpression | significantly inhibit the overexpression | significantly inhibit the overexpression | significantly lower levels | significantly lower levels | dose-dependent inhibition | dose-dependent inhibition
COc1c(C)cnc(CSc2nc3cc(C(=O)O)ccc3n2CCC2=CCCCC2)c1C [compound 12083, 1-(2-(cyclohex-1-en-1-yl)ethyl)-2-(((4-methoxy-3,5-dimethylpyridin-2-yl)methyl)thio)-1H-benzo[d]imidazole-5-carboxylic acid] |  |  |  |  |  |  |  | significantly lower levels | significantly lower levels |  | 
COc1c(C)cnc(CSc2nc3cc(OC(=O)CNC(=O)OC(C)(C)C)ccc3[nH]2)c1C [compound 12093, 2-(((4-methoxy-3,5-dimethylpyridin-2-yl)methyl)thio)-1H-benzo[d]imidazol-5-yl (tert-butoxycarbonyl)glycinate] |  |  |  |  |  |  |  | significantly lower levels | significantly lower levels |  | 
